From ChEMBL document CHEMBL5303763, “Data for DCP probe BI-3802” (2023)

Legend:
[1] = target: B-cell CLL/lymphoma 6 member B protein (Homo sapiens, UniProt Q8N143); experiment: SPR (BCL6B), Ontario institute for cancer research
[2] = target: Zinc finger and BTB domain-containing protein 32 (Homo sapiens, UniProt Q9Y2Y4); experiment: SPR (ZBTB32), Ontario institute for cancer research
[3] = target: Zinc finger and BTB domain-containing protein 17 (Homo sapiens, UniProt Q13105); experiment: SPR (ZBTB17), Ontario institute for cancer research
[4] = target: 5-hydroxytryptamine receptor 1B (Homo sapiens) (UniProt P28222); experiment: 5HT1B(H) Eurofins SafetyScreen44 (BI); conditions: filed as antagonist, Compound concentration 10.0 uM
[5] = target: 5-hydroxytryptamine receptor 1B (Rattus norvegicus) (UniProt P28564); experiment: 5HT1B/R Eurofins SafetyScreen44 (BI); conditions: Compound concentration 10.0 uM
[6] = target: Cyclin-dependent kinase 2/cyclin A (Homo sapiens) (UniProt P24941+P20248+P78396); experiment: CDK2/CYCLINA Invitrogen Lab (UK) kinase screen (BI); format: protein-complex assay; conditions: Compound concentration 1.0 uM
[7] = target: Dual specificity protein kinase CLK1 (Homo sapiens) (UniProt P49759); experiment: CLK1 Invitrogen Lab (UK) kinase screen (BI); conditions: Compound concentration 1.0 uM
[8] = target: Ephrin type-A receptor 2 (Homo sapiens) (UniProt P29317); experiment: EPHA2 Invitrogen Lab (UK) kinase screen (BI); conditions: Compound concentration 1.0 uM
[9] = target: Fibroblast growth factor receptor 1 (Homo sapiens) (UniProt P11362); experiment: FGFR1 Invitrogen Lab (UK) kinase screen (BI); conditions: Compound concentration 1.0 uM
[10] = target: Tyrosine-protein kinase Lyn (Homo sapiens) (UniProt P07948); experiment: LYN A Invitrogen Lab (UK) kinase screen (BI); conditions: Compound concentration 1.0 uM
[11] = target: Dual specificity mitogen-activated protein kinase kinase 2 (Homo sapiens) (UniProt P36507); experiment: MAP2K2 Invitrogen Lab (UK) kinase screen (BI); conditions: Compound concentration 1.0 uM
[12] = target: Dual specificity mitogen-activated protein kinase kinase 6 (Homo sapiens) (UniProt P52564); experiment: MAP2K6 Invitrogen Lab (UK) kinase screen (BI); conditions: Compound concentration 1.0 uM
[13] = target: MAP kinase-activated protein kinase 2 (Homo sapiens) (UniProt P49137); experiment: MAPKAPK2 Invitrogen Lab (UK) kinase screen (BI); conditions: Compound concentration 1.0 uM
[14] = target: Myosin light chain kinase 2, skeletal/cardiac muscle (Homo sapiens) (UniProt Q9H1R3); experiment: MYLK2 Invitrogen Lab (UK) kinase screen (BI); conditions: Compound concentration 1.0 uM
[15] = target: Serine/threonine-protein kinase Nek1 (Homo sapiens) (UniProt Q96PY6); experiment: NEK1 Invitrogen Lab (UK) kinase screen (BI); conditions: Compound concentration 1.0 uM
[16] = target: Platelet-derived growth factor receptor alpha (Homo sapiens) (UniProt P16234); experiment: PDGFRA Invitrogen Lab (UK) kinase screen (BI); conditions: Compound concentration 1.0 uM
[17] = target: RAF proto-oncogene serine/threonine-protein kinase (Homo sapiens) (UniProt P04049); experiment: RAF1 Invitrogen Lab (UK) kinase screen (BI); conditions: Compound concentration 1.0 uM
[18] = target: Ribosomal protein S6 kinase alpha-5 (Homo sapiens) (UniProt O75582); experiment: RPS6KA5 Invitrogen Lab (UK) kinase screen (BI); conditions: Compound concentration 1.0 uM
[19] = target: Proto-oncogene tyrosine-protein kinase Src (Homo sapiens) (UniProt P12931); experiment: SRC Invitrogen Lab (UK) kinase screen (BI); conditions: Compound concentration 1.0 uM
[20] = target: Serine/threonine-protein kinase 3 (Homo sapiens) (UniProt Q13188); experiment: STK3 Invitrogen Lab (UK) kinase screen (BI); conditions: Compound concentration 1.0 uM
[21] = target: 5-hydroxytryptamine receptor 2C (Homo sapiens) (UniProt P28335); conditions: Compound concentration 10.0 uM
Chain of 5-hydroxytryptamine receptor 2C (Homo sapiens) (P28335 whole entry): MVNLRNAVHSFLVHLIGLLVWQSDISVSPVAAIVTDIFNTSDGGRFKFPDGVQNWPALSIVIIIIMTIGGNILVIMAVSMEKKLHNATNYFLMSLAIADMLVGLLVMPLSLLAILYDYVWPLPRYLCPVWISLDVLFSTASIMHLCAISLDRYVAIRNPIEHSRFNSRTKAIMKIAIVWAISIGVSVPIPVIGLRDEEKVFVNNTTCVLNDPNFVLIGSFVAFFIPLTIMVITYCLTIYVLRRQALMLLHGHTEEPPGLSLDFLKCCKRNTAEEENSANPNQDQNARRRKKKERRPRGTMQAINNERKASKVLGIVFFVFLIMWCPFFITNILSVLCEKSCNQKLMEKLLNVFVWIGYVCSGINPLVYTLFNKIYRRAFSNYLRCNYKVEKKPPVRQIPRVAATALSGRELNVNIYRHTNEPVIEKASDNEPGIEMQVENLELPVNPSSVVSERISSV

[22] = target: T1, 5-hydroxytryptamine receptor 3A (Homo sapiens) (UniProt P46098); conditions: Compound concentration 10.0 uM
T1 sequence (whole entry): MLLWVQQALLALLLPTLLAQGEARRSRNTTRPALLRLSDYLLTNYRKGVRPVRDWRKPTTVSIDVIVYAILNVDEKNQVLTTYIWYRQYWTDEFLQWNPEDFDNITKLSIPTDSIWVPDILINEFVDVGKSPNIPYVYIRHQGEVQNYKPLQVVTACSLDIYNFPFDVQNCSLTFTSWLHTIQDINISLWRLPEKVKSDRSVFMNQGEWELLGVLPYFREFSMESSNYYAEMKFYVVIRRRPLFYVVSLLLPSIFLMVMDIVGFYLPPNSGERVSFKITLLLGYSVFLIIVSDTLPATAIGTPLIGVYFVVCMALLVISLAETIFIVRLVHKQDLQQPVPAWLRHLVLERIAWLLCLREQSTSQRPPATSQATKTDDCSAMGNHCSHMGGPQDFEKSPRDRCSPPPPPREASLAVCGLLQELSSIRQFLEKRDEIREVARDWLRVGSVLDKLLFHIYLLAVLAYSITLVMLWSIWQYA

[23] = target: D(3) dopamine receptor (Homo sapiens) (UniProt P35462); conditions: Compound concentration 10.0 uM
Chain of D(3) dopamine receptor (Homo sapiens) (P35462 whole entry): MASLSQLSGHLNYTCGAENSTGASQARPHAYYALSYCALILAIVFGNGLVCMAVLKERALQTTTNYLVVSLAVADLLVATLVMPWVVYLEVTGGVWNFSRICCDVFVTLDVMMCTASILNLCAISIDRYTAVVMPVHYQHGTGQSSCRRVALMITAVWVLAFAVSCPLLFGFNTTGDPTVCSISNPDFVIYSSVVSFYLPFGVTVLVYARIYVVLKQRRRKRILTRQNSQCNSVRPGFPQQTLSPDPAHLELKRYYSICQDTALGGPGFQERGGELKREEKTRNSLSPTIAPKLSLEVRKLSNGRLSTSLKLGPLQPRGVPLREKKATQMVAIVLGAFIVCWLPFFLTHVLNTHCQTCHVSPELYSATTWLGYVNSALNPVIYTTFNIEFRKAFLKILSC

[24] = target: D(4) dopamine receptor (Homo sapiens) (UniProt P21917); conditions: Compound concentration 10.0 uM
Chain of D(4) dopamine receptor (Homo sapiens) (P21917 whole entry): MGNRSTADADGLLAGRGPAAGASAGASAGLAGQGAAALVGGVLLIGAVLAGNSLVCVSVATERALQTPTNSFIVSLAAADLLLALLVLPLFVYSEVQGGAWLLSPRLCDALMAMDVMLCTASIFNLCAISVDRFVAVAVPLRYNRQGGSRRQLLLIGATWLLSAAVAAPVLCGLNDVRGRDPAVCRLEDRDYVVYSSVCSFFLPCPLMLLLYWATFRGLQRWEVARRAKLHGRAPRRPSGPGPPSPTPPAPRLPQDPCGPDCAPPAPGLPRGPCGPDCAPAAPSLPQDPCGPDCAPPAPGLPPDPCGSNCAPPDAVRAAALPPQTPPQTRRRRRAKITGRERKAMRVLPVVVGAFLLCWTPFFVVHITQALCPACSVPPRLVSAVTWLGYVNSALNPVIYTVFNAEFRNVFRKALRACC

[25] = target: Mu-type opioid receptor (Homo sapiens) (UniProt P35372); conditions: Compound concentration 10.0 uM
[26] = target: Delta-type opioid receptor (Homo sapiens) (UniProt P41143); conditions: Compound concentration 10.0 uM
Chain of Delta-type opioid receptor (Homo sapiens) (P41143 whole entry): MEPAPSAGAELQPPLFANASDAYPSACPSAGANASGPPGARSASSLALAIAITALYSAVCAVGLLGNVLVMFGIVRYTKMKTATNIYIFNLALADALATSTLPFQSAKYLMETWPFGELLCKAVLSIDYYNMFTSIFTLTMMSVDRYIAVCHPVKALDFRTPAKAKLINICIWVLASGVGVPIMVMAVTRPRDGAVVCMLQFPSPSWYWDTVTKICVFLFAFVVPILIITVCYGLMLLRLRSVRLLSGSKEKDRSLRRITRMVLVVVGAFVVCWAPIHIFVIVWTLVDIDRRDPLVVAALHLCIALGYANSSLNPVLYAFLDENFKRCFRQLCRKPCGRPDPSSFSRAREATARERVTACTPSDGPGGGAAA

[27] = target: Histamine H3 receptor (Homo sapiens) (UniProt Q9Y5N1); conditions: Compound concentration 10.0 uM
Chain of Histamine H3 receptor (Homo sapiens) (Q9Y5N1 whole entry): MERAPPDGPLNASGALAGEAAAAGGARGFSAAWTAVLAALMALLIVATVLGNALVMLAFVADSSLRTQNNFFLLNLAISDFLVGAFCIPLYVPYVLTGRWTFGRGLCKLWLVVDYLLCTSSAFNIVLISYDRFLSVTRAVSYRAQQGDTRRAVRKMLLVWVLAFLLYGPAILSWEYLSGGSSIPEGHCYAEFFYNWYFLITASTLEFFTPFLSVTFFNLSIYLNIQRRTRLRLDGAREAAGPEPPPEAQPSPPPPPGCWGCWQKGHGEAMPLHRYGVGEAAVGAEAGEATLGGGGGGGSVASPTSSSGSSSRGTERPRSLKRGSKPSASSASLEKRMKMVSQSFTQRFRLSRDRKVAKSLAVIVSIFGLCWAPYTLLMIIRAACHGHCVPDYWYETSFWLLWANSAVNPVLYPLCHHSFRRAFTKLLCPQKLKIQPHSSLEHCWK

[28] = target: Histamine H4 receptor (Homo sapiens) (UniProt Q9H3N8); conditions: Compound concentration 10.0 uM
Chain of Histamine H4 receptor (Homo sapiens) (Q9H3N8 whole entry): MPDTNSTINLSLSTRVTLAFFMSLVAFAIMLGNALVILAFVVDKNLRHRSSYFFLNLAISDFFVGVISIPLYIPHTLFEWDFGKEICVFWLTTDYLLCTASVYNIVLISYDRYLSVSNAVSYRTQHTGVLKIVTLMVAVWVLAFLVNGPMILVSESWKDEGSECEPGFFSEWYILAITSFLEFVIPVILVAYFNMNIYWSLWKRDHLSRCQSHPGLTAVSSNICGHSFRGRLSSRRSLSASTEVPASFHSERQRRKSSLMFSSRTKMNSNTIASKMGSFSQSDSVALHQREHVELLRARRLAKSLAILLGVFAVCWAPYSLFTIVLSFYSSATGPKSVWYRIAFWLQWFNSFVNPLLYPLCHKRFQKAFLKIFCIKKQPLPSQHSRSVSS

[29] = target: Alpha-1B adrenergic receptor (Homo sapiens) (UniProt P35368); conditions: Compound concentration 10.0 uM
Chain of Alpha-1B adrenergic receptor (Homo sapiens) (P35368 whole entry): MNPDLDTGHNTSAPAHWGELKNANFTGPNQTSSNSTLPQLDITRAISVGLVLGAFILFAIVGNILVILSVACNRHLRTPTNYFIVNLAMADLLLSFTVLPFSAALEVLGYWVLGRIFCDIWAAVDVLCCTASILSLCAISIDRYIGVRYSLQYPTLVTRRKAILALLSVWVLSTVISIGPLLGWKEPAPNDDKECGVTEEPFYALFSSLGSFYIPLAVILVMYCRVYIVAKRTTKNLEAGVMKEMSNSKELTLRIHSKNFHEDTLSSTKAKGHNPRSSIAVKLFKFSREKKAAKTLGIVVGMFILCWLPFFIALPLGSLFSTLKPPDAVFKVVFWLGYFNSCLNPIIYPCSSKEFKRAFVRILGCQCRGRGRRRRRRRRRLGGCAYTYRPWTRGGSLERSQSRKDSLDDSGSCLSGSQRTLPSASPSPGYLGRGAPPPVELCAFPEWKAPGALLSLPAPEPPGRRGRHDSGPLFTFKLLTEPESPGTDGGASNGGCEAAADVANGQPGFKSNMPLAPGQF

[30] = target: Alpha-2C adrenergic receptor (Homo sapiens) (UniProt P18825); conditions: Compound concentration 10.0 uM
Chain of Alpha-2C adrenergic receptor (Homo sapiens) (P18825 whole entry): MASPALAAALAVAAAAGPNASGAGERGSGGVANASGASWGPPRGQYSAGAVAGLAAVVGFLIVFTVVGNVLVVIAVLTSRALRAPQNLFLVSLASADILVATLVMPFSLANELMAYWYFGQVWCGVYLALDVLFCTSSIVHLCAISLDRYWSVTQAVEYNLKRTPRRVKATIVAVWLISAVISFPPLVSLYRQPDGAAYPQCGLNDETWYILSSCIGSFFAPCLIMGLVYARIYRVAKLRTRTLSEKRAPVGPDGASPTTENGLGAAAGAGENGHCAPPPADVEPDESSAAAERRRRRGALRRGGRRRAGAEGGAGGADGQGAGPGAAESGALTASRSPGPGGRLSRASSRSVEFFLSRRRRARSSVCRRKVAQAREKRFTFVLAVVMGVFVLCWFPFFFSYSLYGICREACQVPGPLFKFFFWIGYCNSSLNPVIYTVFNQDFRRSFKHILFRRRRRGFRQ

[31] = target: Beta-2 adrenergic receptor (Homo sapiens) (UniProt P07550); conditions: Compound concentration 10.0 uM
[32] = target: Muscarinic acetylcholine receptor M4 (Homo sapiens) (UniProt P08173); conditions: Compound concentration 10.0 uM
Chain of Muscarinic acetylcholine receptor M4 (Homo sapiens) (P08173 whole entry): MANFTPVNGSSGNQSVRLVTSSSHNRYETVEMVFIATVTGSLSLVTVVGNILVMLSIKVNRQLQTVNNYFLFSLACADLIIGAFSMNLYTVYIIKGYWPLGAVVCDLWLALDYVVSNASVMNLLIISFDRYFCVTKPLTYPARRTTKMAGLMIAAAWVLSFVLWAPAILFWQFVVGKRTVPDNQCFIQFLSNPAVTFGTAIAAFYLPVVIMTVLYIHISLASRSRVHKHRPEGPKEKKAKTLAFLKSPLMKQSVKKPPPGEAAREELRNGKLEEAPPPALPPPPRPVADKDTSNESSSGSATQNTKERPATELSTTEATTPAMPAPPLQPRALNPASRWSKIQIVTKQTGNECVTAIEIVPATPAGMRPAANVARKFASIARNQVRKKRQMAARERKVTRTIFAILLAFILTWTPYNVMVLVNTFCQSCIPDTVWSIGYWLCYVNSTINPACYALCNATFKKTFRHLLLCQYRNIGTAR

[33] = target: Beta-3 adrenergic receptor (Homo sapiens) (UniProt P13945); conditions: Compound concentration 10.0 uM
Chain of Beta-3 adrenergic receptor (Homo sapiens) (P13945 whole entry, looked up): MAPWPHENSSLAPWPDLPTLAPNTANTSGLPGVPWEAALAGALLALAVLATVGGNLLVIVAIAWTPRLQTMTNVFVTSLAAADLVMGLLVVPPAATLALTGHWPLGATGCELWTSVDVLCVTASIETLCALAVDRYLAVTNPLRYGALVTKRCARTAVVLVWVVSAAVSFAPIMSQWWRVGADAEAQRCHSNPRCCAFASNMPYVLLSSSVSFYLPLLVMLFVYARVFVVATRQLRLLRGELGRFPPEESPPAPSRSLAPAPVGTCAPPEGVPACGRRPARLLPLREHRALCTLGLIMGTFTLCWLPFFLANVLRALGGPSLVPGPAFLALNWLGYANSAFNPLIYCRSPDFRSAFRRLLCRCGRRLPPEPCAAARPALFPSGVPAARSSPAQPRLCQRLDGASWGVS

[34] = target: GABA-A receptor; anion channel (Rattus norvegicus) (UniProt O09028+P15431+P18506+P18508+P19969+P20236+P23574+P23576+P28471+P28473+P30191+P62813+P63079+P63138+Q91ZM7+Q9ES14); conditions: Compound concentration 10.0 uM
[35] = target: Alpha-1D adrenergic receptor (Homo sapiens) (UniProt P25100); conditions: Compound concentration 10.0 uM
Chain of Alpha-1D adrenergic receptor (Homo sapiens) (P25100 whole entry): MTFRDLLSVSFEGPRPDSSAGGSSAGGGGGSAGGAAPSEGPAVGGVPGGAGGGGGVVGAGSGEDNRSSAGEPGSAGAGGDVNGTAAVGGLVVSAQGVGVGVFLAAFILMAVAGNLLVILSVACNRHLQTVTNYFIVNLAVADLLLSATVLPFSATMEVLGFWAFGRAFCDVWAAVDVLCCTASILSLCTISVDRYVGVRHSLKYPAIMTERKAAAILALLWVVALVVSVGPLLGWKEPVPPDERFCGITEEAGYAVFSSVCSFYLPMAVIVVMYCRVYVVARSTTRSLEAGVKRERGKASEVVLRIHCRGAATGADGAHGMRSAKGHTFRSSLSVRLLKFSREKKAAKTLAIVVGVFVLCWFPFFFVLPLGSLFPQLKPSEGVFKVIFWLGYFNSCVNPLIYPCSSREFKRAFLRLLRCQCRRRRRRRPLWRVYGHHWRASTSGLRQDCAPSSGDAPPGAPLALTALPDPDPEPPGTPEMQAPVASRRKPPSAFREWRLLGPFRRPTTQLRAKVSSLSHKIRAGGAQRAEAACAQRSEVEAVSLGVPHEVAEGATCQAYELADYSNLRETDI

[36] = target: 3-phosphoinositide-dependent protein kinase 1 (Homo sapiens) (UniProt O15530); experiment: PDK1 Invitrogen Lab (UK) kinase screen (BI); conditions: Compound concentration 1.0 uM

`C[C@@H]1C[C@H](C)CN(c2ncc(Cl)c(Nc3ccc4c(c3)cc(OC(C)(C)C(=O)O)c(=O)n4C)n2)C1` was tested, and the Kd [1] was “No binding”, the Kd [2] was “No binding” and the Kd [3] was “No binding”. For the same molecule, the residual activity [4] was 95%.

`CNC(=O)COc1cc2cc(Nc3nc(N4C[C@H](C)C[C@H](C)C4)ncc3Cl)ccc2n(C)c1=O` was tested, and the residual activity [5] was 115%, the residual activity [6] was 102% and the residual activity [7] was 107%. It also gave a residual activity [8] of 97%, a residual activity [9] of 111% and a residual activity [10] of 104%. For the same molecule, the residual activity [11] was 111%, the residual activity [12] was 84% and the residual activity [13] was 102%. For the same molecule, the residual activity [14] was 90%, the residual activity [15] was 101% and the residual activity [16] was 102%. For the same molecule, the residual activity [17] was 94%, the residual activity [18] was 96% and the residual activity [19] was 105%. For the same molecule, the residual activity [20] was 101%, the inhibition [21] was 0.15% and the inhibition [22] was 12.5%. The inhibition [23] was 11.6%, the inhibition [24] was -9.6% and the inhibition [25] was 24.5%. The inhibition [26] was 13.3%, the inhibition [27] was 12.7% and the inhibition [28] was -0.56%. The inhibition [29] was -0.36%, the inhibition [30] was 6.5% and the inhibition [31] was -8.13%. The inhibition [32] was -1.45%, the inhibition [33] was -4.02% and the inhibition [34] was 20.9%. It also gave an inhibition [35] of -7.81% and a residual activity [36] of 98%.
